# Results published in US11352354B2, “Substituted penta-fused hexa-heterocyclic compounds, preparation method therefor, drug combination and use thereof” (Xiamen University, priority 2017, dated 2022).
# pIC50, pKd: −log10 of the molar value. “And” between values parts separate entries of the source, which are not always exact repeats. Equal values may be shown once. “Also recorded” adds a separate entry of the source.
# Key:
# Toledo cells = assay: Growth inhibition of PIKfyve-mediated tumor cells by Cell Titer Glo method, Toledo; format: cell-based; details: Homo sapiens, 120 h, CellTiter-Glo, 5 days of culture, read-out: Inhibition rate % (Toledo)
# Experimental: (§1) IV. Determination of Growth Inhibition Rates of Compounds Against PIKfyve-Mediated Tumor Cells by Cell Titer Glo Method
# (§2) 1. Cell plating: cells in logarithmic growth phase were counted and inoculated in 384-well plate.
# (§3) 3. […] RLU was measured on PHERAstar Plus.
# PIKfyve protein = PIKfyve protein (Homo sapiens (Human), UniProt Q9Y2I7); assay: Dissociation equilibrium constant (Kd) of compound and PIKfyve protein, DiscoverX KINOMEscan; format: binding; details: eleven 3-fold dilutions, curve fitting
# Experimental: II. Determination of Dissociation Equilibrium Constant (Kd Value) of Compound and PIKfyve Protein
# The Kd value was determined by DiscoverX's KINOMEscan™ technology according to the following steps:
# 1. Preparation of magnetic beads: biotin-labeled small molecule ligand and avidin-coated magnetic beads were allowed to interact at room temperature for 30 minutes, and then added with excess biotin, followed by washing with a blocking solution (1% BSA, 0.05% Tween 20, 1 mM DTT) to remove unbound ligand.
# 2. Binding reaction: in a 384 plate, 0.02 mL system, DNA-labeled protein, small molecule ligand-bound magnetic beads, and different concentrations of compound to be tested were mixed in a reaction solution (0.17×PBS, 0.05% Tween 20, 6 mM DTT) at room temperature with shaking for 1 hr, to which was added an eluant (1×PBS, 0.05% Tween 20) for elution. Magnetic beads were resuspended by an eluant (1×PBS, 0.05% Tween 20, 0.5 μM non-biotin-labeled small molecule ligand), and shaken at room temperature for 30 min before separating out the eluant.
# 3. Determination of Kd value: the content of protein in the above eluate was determined by qPCR. Eleven 3-fold dilution concentrations were determined for the compound to be tested, with 3 DMSO controls for each concentration, and the Kd value was obtained by curve fitting.
# MDA-MB-231 cells = assay: Vacuolation of MDA-MB-231 cells caused by inhibition of compounds on PIKfyve (microscopy); format: cell-based; details: for degree of vacuolation, 1 μM, 24 h / degree of vacuolation, 1 μM, 48 h / degree of vacuolation, 10 μM, 24 h / degree of vacuolation, 10 μM, 48 h: MDA-MB-231 cells; as to degree of vacuolation, 1 μM, 24 h: key: '+' represents the degree of vacuolation; ++: more '+' indicates more obvious vacuolation; +++: more '+' indicates more obvious vacuolation; ++++: more '+' indicates more obvious vacuolation; '−' represents no vacuolation; as to degree of vacuolation, 1 μM, 48 h: key: '+' represents the degree of vacuolation; ++: more '+' indicates more obvious vacuolation; +++: more '+' indicates more obvious vacuolation; ++++: more '+' indicates more obvious vacuolation; '−' represents no vacuolation; as to degree of vacuolation, 10 μM, 24 h: key: '+' represents the degree of vacuolation; ++: more '+' indicates more obvious vacuolation; +++: more '+' indicates more obvious vacuolation; ++++: more '+' indicates more obvious vacuolation; '−' represents no vacuolation; as to degree of vacuolation, 10 μM, 48 h: key: '+' represents the degree of vacuolation; ++: more '+' indicates more obvious vacuolation; +++: more '+' indicates more obvious vacuolation; ++++: more '+' indicates more obvious vacuolation; '−' represents no vacuolation
# In short: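 MDA-MB-231 cells in 12-well plates at 37 °C, 5% CO2 were observed by microscopy after 24 and 48 h of culture for cytoplasmic vacuolation as a readout of PIKfyve inhibition. Scoring was semi-quantitative, from − (none) to increasing +.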
# ST486 cells = assay: Growth inhibition of PIKfyve-mediated tumor cells by Cell Titer Glo method, ST486; format: cell-based; details: Homo sapiens, 120 h, CellTiter-Glo, 5 days of culture, read-out: Inhibition rate % (ST486)
# Experimental: as §1, §2, §3
# JeKo-1 cells = assay: Tumor cell growth inhibition by MTS method, JeKo-1; format: cell-based; details: Homo sapiens, JeKo-1, 120 h, 5 days of culture; for inhibition at 10 µM: read-out: cell growth inhibition rate of compounds at 10 μM
# Experimental: III. Determination of IC50 Value of Compound for Inhibiting Tumor Cell Growth by MTS Method
# 1. Cell plating: cells in logarithmic growth phase were counted and inoculated in a 96-well plate (20000 cells per well).
# 2. Administrating agent to cell: 10 mM compound mother solution in DMSO was subjected to 3 fold-gradient dilution, to set 8 concentrations, which were then added to various wells, with three replicates for each concentration, and three blank wells (only culture medium) and three negative controls (containing 0.1% DMSO) on each plate.
# 3. […] The OD value at 490 nm was measured with microplate reader OD490. The cell growth inhibition rate was calculated by the following formula: Cell growth inhibition rate %=1−(ODexperimental group−ODblank group)/(ODnegative group−ODblank group)×100%
# The semi-inhibitory concentration IC50 of the compound acting on cell growth was calculated using GradPad Prism 5 software according to the measured cell growth inhibition rate.
# In the following table it lists the IC50 value or the inhibition rates of some compounds at 10 μM against JeKo-1 cells
# Chain of PIKfyve protein (Q9Y2I7 whole entry): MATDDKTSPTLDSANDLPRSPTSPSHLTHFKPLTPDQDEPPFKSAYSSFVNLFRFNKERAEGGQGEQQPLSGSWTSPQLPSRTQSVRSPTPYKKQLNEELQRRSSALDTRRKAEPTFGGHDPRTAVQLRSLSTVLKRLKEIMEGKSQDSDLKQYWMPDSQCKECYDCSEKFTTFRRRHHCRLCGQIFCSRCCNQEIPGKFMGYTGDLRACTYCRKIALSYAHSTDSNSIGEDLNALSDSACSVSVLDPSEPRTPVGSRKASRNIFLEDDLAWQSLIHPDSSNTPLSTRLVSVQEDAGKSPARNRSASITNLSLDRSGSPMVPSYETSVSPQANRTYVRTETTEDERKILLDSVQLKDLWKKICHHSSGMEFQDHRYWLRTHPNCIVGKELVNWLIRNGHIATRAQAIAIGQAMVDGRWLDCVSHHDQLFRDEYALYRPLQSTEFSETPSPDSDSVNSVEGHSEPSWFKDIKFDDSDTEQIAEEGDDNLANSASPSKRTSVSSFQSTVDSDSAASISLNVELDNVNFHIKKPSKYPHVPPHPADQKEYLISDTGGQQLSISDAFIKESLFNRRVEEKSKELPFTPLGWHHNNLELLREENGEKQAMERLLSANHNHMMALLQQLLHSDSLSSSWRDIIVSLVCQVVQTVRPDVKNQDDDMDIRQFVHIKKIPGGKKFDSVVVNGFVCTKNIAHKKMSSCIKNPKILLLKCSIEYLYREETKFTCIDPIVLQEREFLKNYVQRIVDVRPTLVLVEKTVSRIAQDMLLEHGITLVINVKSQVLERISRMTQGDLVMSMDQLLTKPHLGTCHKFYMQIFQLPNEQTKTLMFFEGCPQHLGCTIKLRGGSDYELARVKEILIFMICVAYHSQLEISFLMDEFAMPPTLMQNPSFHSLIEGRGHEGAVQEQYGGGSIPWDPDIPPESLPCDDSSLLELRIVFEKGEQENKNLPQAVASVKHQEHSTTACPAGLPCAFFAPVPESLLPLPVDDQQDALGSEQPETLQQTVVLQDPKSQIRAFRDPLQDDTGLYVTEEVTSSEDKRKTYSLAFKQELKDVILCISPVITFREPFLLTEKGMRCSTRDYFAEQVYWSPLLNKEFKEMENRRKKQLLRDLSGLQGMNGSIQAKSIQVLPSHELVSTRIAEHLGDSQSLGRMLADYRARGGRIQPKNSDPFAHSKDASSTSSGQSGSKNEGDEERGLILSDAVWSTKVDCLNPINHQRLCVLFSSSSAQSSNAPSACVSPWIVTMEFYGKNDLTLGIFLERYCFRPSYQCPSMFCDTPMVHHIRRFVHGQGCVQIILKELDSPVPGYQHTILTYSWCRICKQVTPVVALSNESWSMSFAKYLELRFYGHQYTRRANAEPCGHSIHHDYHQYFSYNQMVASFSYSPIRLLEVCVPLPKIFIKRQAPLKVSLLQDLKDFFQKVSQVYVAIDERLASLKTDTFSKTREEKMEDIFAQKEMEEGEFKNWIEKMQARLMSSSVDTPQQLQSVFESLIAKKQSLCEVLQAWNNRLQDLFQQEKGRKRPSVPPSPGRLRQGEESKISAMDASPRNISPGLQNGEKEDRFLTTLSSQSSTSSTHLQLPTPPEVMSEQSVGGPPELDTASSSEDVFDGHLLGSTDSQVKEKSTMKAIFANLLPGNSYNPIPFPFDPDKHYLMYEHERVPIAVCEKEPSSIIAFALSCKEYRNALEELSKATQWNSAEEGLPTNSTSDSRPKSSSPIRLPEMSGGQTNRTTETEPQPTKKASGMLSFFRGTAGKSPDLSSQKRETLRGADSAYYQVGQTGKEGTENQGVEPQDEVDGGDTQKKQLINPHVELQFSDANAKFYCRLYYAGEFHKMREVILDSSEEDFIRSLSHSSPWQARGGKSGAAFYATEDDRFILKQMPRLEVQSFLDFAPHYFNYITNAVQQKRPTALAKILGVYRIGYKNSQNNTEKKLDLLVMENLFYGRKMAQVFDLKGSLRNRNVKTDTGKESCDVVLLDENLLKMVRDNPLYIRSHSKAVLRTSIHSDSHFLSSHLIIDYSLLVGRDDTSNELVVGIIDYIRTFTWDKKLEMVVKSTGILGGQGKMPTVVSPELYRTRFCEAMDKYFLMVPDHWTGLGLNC
pKd (PIKfyve protein),pIC50 (JeKo-1 cells),SMILES,inhibition at 3.3 µM (Toledo cells) [%],"degree of vacuolation, 1 μM, 24 h (MDA-MB-231 cells)","degree of vacuolation, 1 μM, 48 h (MDA-MB-231 cells)","degree of vacuolation, 10 μM, 24 h (MDA-MB-231 cells)","degree of vacuolation, 10 μM, 48 h (MDA-MB-231 cells)",inhibition at 3.3 µM (ST486 cells) [%],inhibition at 10 µM (JeKo-1 cells) [%],"vacuolation of MDA-MB-231 cells (FIG. 1) (MDA-MB-231 cells; 1 μmol/L, time and concentration dependence)"
8.19,6.06,O=C(Nc1cccc(Nc2nc(-c3cccnc3)c3[nH]ccc3n2)c1)c1cccc(C(F)(F)F)c1 [V-c-18],95.2,+++,+++,+++,+++,96,,
5.70,,c1cncc(-c2nc(Nc3cc(N4CCOCC4)cc(N4CCOCC4)c3)nc3cc[nH]c23)c1 [V-c-2],< 10,−,−,−,−,18,,
7.48,,Cc1ccc(NC(=O)c2ccc(C(F)(F)F)cc2)cc1Nc1nc(-c2cccnc2)c2[nH]ccc2n1 [V-c-23],94.9,++,−,++,−,27.2,15.8,
6.15,,Cc1ccc(C(=O)Nc2ccc(CN3CCN(C)CC3)c(C(F)(F)F)c2)cc1Nc1nc(-c2cccnc2)c2[nH]ccc2n1 [V-c-11],95.3,−,−,−,−,96.2,,
7.54,,Cc1ccc(C(=O)Nc2cc(C(F)(F)F)cc(C(F)(F)F)c2)cc1Nc1nc(-c2cccnc2)c2[nH]ccc2n1 [V-c-9],19.3,,,,,37.7,,
< 4.52,5.55,COc1ccc(C(F)(F)F)cc1NC(=O)c1ccc(C)c(Nc2nc(-c3cccnc3)c3[nH]ccc3n2)c1 [V-c-12],95.6,+++,+++,+++,+++,72.3,,
4.68,5.81,Cc1ccc(NC(=O)c2ccc(CN3CCN(C)CC3)c(C(F)(F)F)c2)cc1Nc1nc(-c2cccnc2)c2[nH]ccc2n1 [V-c-22],64.2,,,,,57.1,,
< 4.52,,Cc1ccc(C(=O)Nc2cccc(C(F)(F)F)c2)cc1Nc1nc(-c2ccncc2)c2[nH]ccc2n1 [V-c-38],53.3,,,,,30,,
7.80 and 7.82,5.68,Cc1ccc(NC(=O)c2cccc(C(F)(F)F)c2)cc1Nc1nc(-c2cccnc2)c2[nH]ccc2n1 [V-c-19],97.3,+++,+++,+++,+++,70.6,,"induces vacuolation of MDA-MB-231 cells, with good time dependence; also recorded: induces vacuolation of MDA-MB-231 cells, with good concentration dependence"
5.46,,Cc1cn(-c2cc(NC(=O)c3ccc(C)c(Nc4nc(-c5cccnc5)c5[nH]ccc5n4)c3)cc(C(F)(F)F)c2)cn1 [V-c-10],94.8,−,−,++,++,93,,
6.89,,CS(=O)(=O)Nc1cccc(Nc2nc(-c3cccnc3)c3[nH]ccc3n2)c1 [V-c-1],43.1,−,−,++,++,35.2,,
7.48,5.23,O=C(Nc1cccc(C(F)(F)F)c1)c1cccc(Nc2nc(-c3cccnc3)c3[nH]ccc3n2)c1 [V-c-4],99.5,++,++,+++,+++,76.2,,
6.85,,Cc1ccc(NC(=O)Nc2cccc(C(F)(F)F)c2)cc1Nc1nc(-c2cccnc2)c2[nH]ccc2n1 [V-c-15],99.6,++,++,++,++,57.5,35.1,
6.04,,Cc1ccc(NC(=O)c2cc(C(F)(F)F)cc(C(F)(F)F)c2)cc1Nc1nc(-c2cccnc2)c2[nH]ccc2n1 [V-c-21],99.5,,,,,23.8,,
7.70,,Cc1ccc(C(=O)Nc2cc(C(F)(F)F)ccc2Cl)cc1Nc1nc(-c2cccnc2)c2[nH]ccc2n1 [V-c-14],99.6,++,−,++,++,52.2,46.6,
7.80,,Cc1ccc(C(=O)Nc2cc(C(F)(F)F)ccc2F)cc1Nc1nc(-c2cccnc2)c2[nH]ccc2n1 [V-c-13],99.7,++,−,++,++,85.2,34.3,
< 4.52,,Cc1cc(NC(=O)c2cccc(C(F)(F)F)c2)ccc1Nc1nc(-c2cccnc2)c2[nH]ccc2n1 [V-c-24],97.3,,,,,55.8,,
< 4.52,,Cc1ccc(NC(=O)c2cccc(C(F)(F)F)c2)cc1Nc1nc(-c2ccncc2)c2[nH]ccc2n1 [V-c-39],49.1,,,,,9.57,,
6.96,5.21,Cc1ccc(NC(=S)Nc2cccc(C(F)(F)F)c2)cc1Nc1nc(-c2cccnc2)c2[nH]ccc2n1 [V-c-16],99.5,++,++,++,++,60.3,,
6.42,,Cc1ccc(NC(=O)c2cccc(C(F)(F)F)c2)cc1Nc1nc(-c2cccnc2)c2c(ccn2C)n1 [V-c-40],98.8,+,+++,+,+++,57.1,,
7.80,5.31,Cc1ccc(C(=O)Nc2cccc(NS(C)(=O)=O)c2)cc1Nc1nc(-c2cccnc2)c2[nH]ccc2n1 [V-c-6],93.9,+,++,+++,+++,69.9,,
,5.48,Cc1ccc(C(=O)Nc2cccc(C(F)(F)F)c2)cc1Nc1nc(-c2cccnc2)c2[nH]ccc2n1 [V-c-7],95.8,++,++,+,+,91.3,,
6.00,5.03,Cc1ccc(NS(=O)(=O)c2cccc(C(F)(F)F)c2)cc1Nc1nc(-c2cccnc2)c2[nH]ccc2n1 [V-c-20],99.7,−,++,−,++,33.3,,
